Consider nine compounds from ChEMBL document CHEMBL6087434, “An Activatable Heavy-Atom-Free Upconversion Photosensitizer for Targeted Imaging and Treatment of Tumors” (J Med Chem, 2024).

The nature of series [1]: Induction of singlet oxygen quantum yield under 808 nm light irradiation by DPBF based assay. The format is functional.
Series [2] relates to A549. In words: Induction of apoptosis in human A549 cells under 808 nm light irradiation by Annexin V-FITC/PI staining based flow cytometry. The format is functional, cell-based. On the technique in general: A flow cytometer gives signals particle by particle.
The nature of series [3]: Drug metabolism assessed as NTR(unknown origin)-mediated metabolism under 745 nm light irradiation by fluorescence based analysis. The format is ADME. Particulars: human.
Series [4] is described as follows: Drug metabolism in human A549 cells assessed as NTR-mediated metabolism under 10 to 20 percent oxygen at 10 uM incubated for 30 mins by confocal fluorescence imaging based analysis. The format is ADME, cell-based. Particulars: a549, 0.5 h.
The nature of series [5]: Drug metabolism in human A549 cells assessed as NTR-mediated metabolism under 5 percent oxygen at 10 uM incubated for 30 mins by DAPI staining based CLSM analysis. The format is ADME, cell-based. As to conditions: a549, 0.5 h.
Series [6] can be described thus: Drug localization in human A549 cells assessed as co-localization co-efficient at 10 uM by LysoTracker Green DND-2 dye based analysis. The format is ADME, cell-based. Particulars: a549, 10 µM.
Series [7] is described as follows: Drug localization in human HeLa cells assessed as co-localization co-efficient at 10 uM by LysoTracker Green DND-2 dye based analysis. The format is ADME, cell-based.
The subject of series [8] is A549. Briefly: Cytotoxicity against human A549 cells assessed as survival rate under absence of light upto 10 uM measured after 12 hrs by MTT assay relative to control. The format is functional. As to conditions: up to 10 µM.
Series [9] relates to HeLa. In words: Cytotoxicity against human HeLa cells assessed as survival rate under absence of light upto 10 uM measured after 12 hrs by MTT assay relative to control. The format is functional. Particulars: up to 10 µM. For orientation: Formazan colour is commonly taken as a measure of viable cells.
For series [10], the system named is 4T1. In words: Cytotoxicity against mouse 4T1 cells assessed as survival rate under absence of light upto 10 uM measured after 12 hrs by MTT assay relative to control. The format is functional. As to conditions: up to 10 µM.
Series [11] relates to A549. In words: Cytotoxicity against human A549 cells assessed as survival rate under laser light irradiation measured after 12 hrs by MTT assay. The format is functional, cell-based. Particulars: dose <= 10.0 µM.
Series [12] has as its system HeLa. In words: Cytotoxicity against human HeLa cells assessed as survival rate under laser light irradiation measured after 12 hrs by MTT assay. The format is functional, cell-based. Particulars: dose <= 10.0 µM.
Series [13] has as its system 4T1. Briefly: Cytotoxicity against mouse 4T1 cells assessed as survival rate under laser light irradiation measured after 12 hrs by MTT assay. The format is functional, cell-based. Particulars: dose <= 10.0 µM.
Series [14] has as its system A549. In words: Cytotoxicity against human A549 cells assessed as survival rate under laser light irradiation at 2.5 uM measured after 12 hrs by MTT assay relative to control. Particulars: A549, light or radiation study, read-out: Survival. The format is functional.
For series [15], the system named is HeLa. Briefly: Cytotoxicity against human HeLa cells assessed as survival rate under laser light irradiation at 2.5 uM measured after 12 hrs by MTT assay relative to control. The format is functional. As to conditions: light or radiation study, read-out: Survival.
The subject of series [16] is 4T1. In words: Cytotoxicity against mouse 4T1 cells assessed as survival rate under laser light irradiation at 2.5 uM measured after 12 hrs by MTT assay relative to control. The format is functional. Particulars: 4T1, light or radiation study, read-out: Survival.
Series [17] concerns A549. In words: Cytotoxicity against human A549 cells assessed as survival rate under laser light irradiation at 10 uM measured after 12 hrs by MTT assay relative to control. The format is functional. As to conditions: A549, light or radiation study, read-out: Survival.
For series [18], the system named is HeLa. In words: Cytotoxicity against human HeLa cells assessed as survival rate under laser light irradiation at 10 uM measured after 12 hrs by MTT assay relative to control. The format is functional. Particulars: light or radiation study, read-out: Survival.
For series [19], the system named is 4T1. Briefly: Cytotoxicity against mouse 4T1 cells assessed as survival rate under laser light irradiation at 10 uM measured after 12 hrs by MTT assay relative to control. The format is functional. Particulars: 4T1, light or radiation study, read-out: Survival.
The subject of series [20] is A549. Briefly: Induction of singlet oxygen production in human A549 cells under 808 nm light irradiation by DCF-DA probe based analysis. The format is functional, cell-based.
For series [21], the system named is A549. In words: Cytotoxicity against human A549 cells under 808 nm light irradiation by DCF-DA probe based analysis. The format is functional, cell-based.
For series [22], the system named is A549. Briefly: Inhibition of cell migration in human A549 cells under 808 nm light irradiation measured for 18 hrs by wound healing assay. The format is functional, cell-based.
Series [23] is described as follows: Drug uptake in mouse model xenografted with human A549 cells at 300 uM, iv measured after 90 mins by fluorescence based imaging analysis. The format is ADME, organism-based. Particulars: in vivo, 1.5 h. A general note: A xenograft is tissue or cells of one species grown in another, often human tumour cells in immunodeficient mice.
Series [24] in a line: Drug uptake in human A549 cells xenografted in mouse model at 300 uM, iv measured after 2 hrs by fluorescence based imaging analysis. As to conditions: in vivo. The format is ADME, organism-based.
Series [25] relates to A549. Briefly: Antitumor activity against human A549 cells xenografted in mouse model assessed as tumor growth inhibition at 300 uM, iv administered every other day under laser light irradiation for 14 days. The format is functional, organism-based. Particulars: time 14.0 day.
The test system of series [26] is A549. Briefly: Antitumor activity against human A549 cells xenografted in mouse model assessed as tumor disappearance at 300 uM, iv administered every other day under laser light irradiation for 14 days relative to control. The format is functional. As to conditions: time 14 day.
Series [27] relates to A549. Briefly: Antitumor activity against human A549 cells xenografted in mouse model assessed as decrease in tumor re-occurence at 300 uM, iv administered every other day under laser light irradiation measured after 14 days during observation period. Particulars: time 14.0 day. The format is functional, organism-based.
The nature of series [28]: Toxicity in mouse model xenografted with human A549 cells assessed as body weight change at 300 uM, iv measured for 14 days. The format is organism-based. Particulars: 336 h, time 14 day.
For series [29], the system named is A549. Briefly: Antitumor activity against human A549 cells xenografted in mouse model assessed as cellular structural damage at 300 uM, iv administered every other day under laser light irradiation measured after 14 days by H and E staining based analysis. The format is functional, organism-based. Particulars: time 14.0 day.
Series [30] deals with A549. Briefly: Antitumor activity against human A549 cells xenografted in mouse model assessed as presence of necrotic cells at 300 uM, iv administered every other day under laser light irradiation measured after 14 days by H and E staining based analysis. The format is functional, organism-based. Particulars: time 14.0 day.
Series [31] in a line: Toxicity in mouse model xenografted with human A549 cells assessed as damage in heart at 300 uM, iv measured after 14 days by H and E staining based analysis. The format is organism-based. As to conditions: 336 h, time 14 day.
Series [32] can be described thus: Toxicity in mouse model xenografted with human A549 cells assessed as damage in liver at 300 uM, iv measured after 14 days by H and E staining based analysis. The format is organism-based. Particulars: 336 h, time 14 day.
The nature of series [33]: Toxicity in mouse model xenografted with human A549 cells assessed as damage in spleen at 300 uM, iv measured after 14 days by H and E staining based analysis. The format is organism-based. As to conditions: 336 h, time 14 day.
Series [34] can be described thus: Toxicity in mouse model xenografted with human A549 cells assessed as damage in lung at 300 uM, iv measured after 14 days by H and E staining based analysis. The format is organism-based. As to conditions: 336 h, time 14 day.
Series [35] can be described thus: Toxicity in mouse model xenografted with human A549 cells assessed as damage in kidney at 300 uM, iv measured after 14 days by H and E staining based analysis. The format is organism-based. Particulars: 336 h, time 14 day.
Series [36] in a line: Induction of singlet oxygen quantum yield assessed as decrease in absorption signal under 415 nm light irradiation measured after 15 mins by DPBF based assay. The format is functional. The arrangement: scale not given: the % may be the effect or the level left.
The test system of series [37] is A549. Briefly: Induction of singlet oxygen production in human A549 cells by DCF-DA probe based analysis. The format is functional, cell-based.
The subject of series [38] is A549. Briefly: Cytotoxicity against human A549 cells under near-infra red light irradiation. The format is functional, cell-based.
For series [39], the system named is A549. In words: Cytotoxicity against NAC-treated human A549 cells by DCF-DA probe based analysis. The format is functional, cell-based.
Series [40] in a line: Photostability of compound upto 2 W/cm2 measured for 8 mins. The format is physicochemical.
Series [41] can be described thus: Induction of singlet oxygen quantum yield under 808 nm light irradiation in presence of NTR by DPBF based assay. The format is functional.
Series [42] in a line: Drug metabolism in human A549 cells assessed as NTR-mediated metabolism at 10 uM incubated for 30 mins by DAPI staining based CLSM analysis. The format is ADME, cell-based. Particulars: a549, 0.5 h.
The nature of series [43]: Drug metabolism in human HeLa cells assessed as NTR-mediated metabolism at 10 uM incubated for 30 mins by DAPI staining based CLSM analysis. The format is ADME, cell-based. Particulars: 0.5 h.
The nature of series [44]: Drug metabolism in human L02 cells assessed as NTR-mediated metabolism at 10 uM incubated for 30 mins by DAPI staining based CLSM analysis. The format is ADME, cell-based. As to conditions: l02, 0.5 h.

Calls of active or inactive are those of the source. The rule behind the calls is not given here.

For `CC[N+]1=C(/C=C/C2=C3Oc4cc(O)ccc4C=C3CCC2)C(C)(C)c2c1ccc1ccccc21`, the Activity in series [1] was 0.002.
For the compound `CC[N+]1=C(/C=C/C2=C3Oc4cc(N(C)C(=O)OCc5ccc([N+](=O)[O-])cc5)ccc4C=C3CCC2)C(C)(C)c2c1ccc1ccccc21.I`, the result in the series on A549 [2], with A549 [20], in the series with A549 [21], with A549 [27], in the series with A549 [29] and in the series on A549 [30] was Active. Besides, the Drug metabolism entry was “metabolite_detected” in series [3], “metabolite_notdetected” in series [4] and “metabolite_detected” in [5]. The Activity in series [6] is 0.9; in series [7], 0.88; in the series with A549 [11], “Dose-dependent-effect”; in the series with HeLa [12], “Dose-dependent-effect”; in the series on 4T1 [13], “Dose-dependent-effect”; with A549 [26], around 100%. For the same compound, the Activity entry in series [28], in series [31], in series [32], in series [33], in series [34] and in [35] was “Non-toxic” throughout. The Survival in the series with A549 [8], with HeLa [9] and in the series on 4T1 [10] was above 85% in each case. For the same compound, the viability at 2.5 µM in the series on A549 [14], in the series on HeLa [15] and in the series on 4T1 [16] was below 80% each time. In addition, the viability at 10 µM in the series with A549 [17], in the series with HeLa [18] and in the series on 4T1 [19] was below 40% in each case. The inhibition result in the series with A549 [22] and with A549 [25] was “Active” in each case. The Drug uptake entry in [23] and in series [24] was “Active” in each case.
Turning to `CC[N+]1=C(/C=C/C2=C3Oc4cc(N)ccc4C=C3CCC2)C(C)(C)c2c1ccc1ccccc21`, the Activity in series [1] was determined as 0.008.
Compound `CC[N+]1=C(/C=C/C2=C3Oc4cc(NC)ccc4C=C3CCC2)C(C)(C)c2ccccc21` had an Activity in series [1] of 0.005.
Consider `CC[N+]1=C(/C=C/C2=C3Oc4cc(NC)ccc4C=C3CCC2)C(C)(C)c2c1ccc1ccccc21.[I-]`, for which the Activity turned out to be 0.059 in [1] and 74.7% in [36]. The outcome in the series with A549 [37], in the series with A549 [38] and in the series with A549 [2] was Active. Also, the result (with A549 [39]; in series [41]) was inactive. In series [40], the Stability result was “Stable”.
On to `O=c1oc2ccccc2c(O)c1Cc1c(O)c2ccccc2oc1=O` [DICUMAROL], for which the Drug metabolism result in [42] and in series [43] was “metabolite_notdetected” throughout. The outcome in the series on A549 [20] and in the series on A549 [21] was inactive.
For the compound `CC[N+]1=C(/C=C/C2=C3Oc4cc(O)ccc4C=C3CCC2)C(C)(C)c2ccccc21`, in series [1], the Activity is 0.002.
For the compound `CC[N+]1=C(/C=C/C2=C3Oc4cc(N)ccc4C=C3CCC2)C(C)(C)c2ccccc21`, the Activity in [1] was 0.005.
Turning to COBALTOUS CHLORIDE, in series [44], the Drug metabolism entry was “metabolite_detected”.
